The text below walks through data of US8592405B2, “Synergistic antimicrobial composition” (Dow Global Technologies LLC, priority 2009, dated 2013).

The structures appear in SMILES notation. Values joined by “and” are separate entries in the source; they are usually repeats but may differ in a detail not shown here. Equal values may be shown once.

Holding throughout (type): cell-based
Experiment [1] concerns Alternaria alternata (Aa). The experiment is described as follows: Fungal efficacy testing, modified ASTM 5590 (12-well, dry paint film). Particulars: three weeks; for Total conc, ppm: total biocide in paint taken as minimum inhibitory concentration, 30 C; for % inhibition: at the Total conc. As to the method:
(§1) Samples of white acrylic latex paint free of biocides were prepared in 50 ml aliquots. Each biocide was post added to give the necessary active ingredient concentration in the paint. The total biocides concentrations tested were 750, 1500, 2500 and 5000 ppm. After biocides addition, each sample was hand mixed for a minimum of 30 sec, followed by a 3 min run on the paint shaker (RED DEVIL). Each of the paint samples as well as a control sample (containing no biocide) were used to prepare films on black plastic-vinyl chloride/acetate copolymer panels (LENETA, Mahwah, N.J.) using a 3 mil bird bar applicator. The panels were thoroughly dried for 5 days avoiding direct exposure to sunlight. Square discs (15 mm^2) were cut out from each panel and were used as the substrate for fungal and algal efficacy tests. This sample size allowed for an agar border when the sample disc was placed into the well of the test plate.
(§2) The appropriate media (BOLD'S 3N for Chlorophytes, BG-11 for Cyanobacteria, and PDA for fungi) were used to support microbial growth. The test plates were maintained at room temp (25° C.-26° C.), in a cycled light-dark environment, for 3 weeks for algae. Plates for fungal challenge tests were maintained at 30C for three weeks. At the end of incubation period the samples were scored for percent area covered by visible microbial growth.
(§3) ASTM 5590 is a standard accelerated test method for determining resistance of various coatings (including paints) to fungal defacement. To accommodate for high-throughput screening, this method was scaled down from petri plates to 12-well plates. To set up the test, an agar plug was placed at the bottom of each well of the sterile 12-well plate. A single coupon was placed with a pair of sterile forceps at the center of the agar plug (on top) with the painted surface facing upwards. Each well was inoculated with 150 μl of organism (1×10^6 cfu/ml) making sure that the whole surface (paint film as well as the agar surrounding it) was evenly covered. The plates were incubated at 30° C. in presence of moisture, for a period of three weeks. The total percent area covered was evaluated and recorded at the end of each week after the 2nd week and recorded in increments of 5%.
(§4) The SI is calculated based on F. C. Kull et.

Experiment [2] relates to Stachybotris chartarum (Sc). The experiment is described as above. Particulars: three weeks; for % inhibition: at the Total conc; for Total conc, ppm: total biocide in paint taken as minimum inhibitory concentration, 30 C. As for the experimental part: as §1, §2, §3, §4
The test system of experiment [3] is Aureobasidium pullulans (Ap). The experiment is described as above. Particulars: three weeks; for Total conc, ppm: total biocide in paint taken as minimum inhibitory concentration, 30 C; for % inhibition: at the Total conc. As to the method: as §1, §2, §3, §4
Experiment [4] has as its system Penicillium funiculosum (Pf). Described as above. Particulars: three weeks; for Total conc, ppm: total biocide in paint taken as minimum inhibitory concentration, 30 C; for % inhibition: at the Total conc. As for the experimental part: as §1, §2, §3, §4
For experiment [5], the system named is Cladosporium herbarum (Ch). The experiment is described as above. Particulars: three weeks; for Total conc, ppm: total biocide in paint taken as minimum inhibitory concentration, 30 C; for % inhibition: at the Total conc. As to the method: as §1, §2, §3, §4
Experiment [6] has as its system Cs + Ck + Nc (Chlorella sp., Chlorella kessleri, Nostoc commune). The experiment is described as follows: Algal efficacy testing, modified ASTM 5589 (6-well, mixed inoculum, Example 4). Particulars: four weeks; for Total conc, ppm: Cs + Ck + Nc mixed inoculum, NE = no end point at the concentration tested; for % inhibition: Cs + Ck + Nc, at the Total conc. As for the experimental part: (§5) A single or blend of biocides was post added into white acrylic latex paint free of biocides to give a maximum total active ingredient/s concentration tested. This paint was then diluted with a biocide free acrylic latex paint at concentrations range of 75 to 12.5% w/w to give desired concentrations for the testing. Depending on the type of biocide blends tested, the total biocides concentrations varies from 200 to 5000 ppm. After biocides addition or dilution each sample was hand mixed for at least a minute until uniformity is achieved. Each of the paint samples as well as a control sample (containing no biocide) were used to prepare films on black plastic-vinyl chloride/acetate copolymer panels (LENETA, Mahwah, N.J.) using a 3 mil bird bar applicator. The panels were thoroughly dried for at least 2 days avoiding direct exposure to sunlight. Square discs (0.5 inch^2, 13 mm^2) were cut out from each panel and were used as the substrate for fungal and algal efficacy tests. This sample size allowed for an agar border when the sample disc was placed into the well of the test plate. Each sample was tested in duplicate
(§6) The appropriate media (BOLD'S 3N for Chlorophytes, BG-11 for Cyanobacteria, and PDA for fungi) were used to support microbial growth. The test plates were maintained at room temp (25° C.-26° C.), in a cycled light-dark environment, for four weeks for algae. Plates for fungal challenge tests were maintained at 30 C for four weeks. At the end of the incubation period the samples were scored for percent area covered by visible microbial growth.
(§7) ASTM 5589 is a standard accelerated test method for determining resistance of various coatings (including paints) to algal defacement. To accommodate for high-throughput screening, this method was scaled down from petri plates to 6-well plates. A single coupon was placed with a pair of sterile forceps at the center of the agar plug (on top) with the painted surface facing upwards. Algal inoculums were prepared by mixing equal concentrations (1×10^6 cfu/ml) and equal volumes (depending on number of samples to be inoculated) of like growing organisms. In this study, Gloeocapsa sp. and Oscillatoria sp. were a mix of cyanobacteria grown on BG-11 media. Chlorella sp., Chlorella kessleri, and Nostoc commune are unicellular chlorphytes that were mixed and grown on Bold media. Trentepohlia aurea, Trentepohlia odorata, and Calotrix parientina are filamentous algae that were mixed and grown on Bold media. Each well was inoculated with 400 μl of organism mixture (1×10^6 cfu/ml) making sure that the whole surface (paint film as well as the agar surrounding it) was evenly covered. The plates were incubated at room temp (25° C.-26° C.) with cyclic exposure to light (OTT-Lite model #OTL4012P, 40 Watt, 26 KLumen) and dark phases, for a period of four weeks. The total area covered was evaluated at the end of each week according to percent area covered in 5% increments. While rating the plates, notations were made for zones of inhibition.

In experiment [7] the test system is Cp + To + Ta (Calotrix parientina, Trentepohlia odorata, Trentepohlia aurea). Described as above. As to conditions: four weeks; for Total conc, ppm: Cp + To + Ta mixed inoculum, NE = no end point at the concentration tested; for % inhibition: Cp + To + Ta, at the Total conc. As for the experimental part:
as §5, §6, §7

Experiment [8] has as its system Gs + Os (Gloeocapsa sp. + Oscillatoria sp.). The description is as above. As to conditions: four weeks; for Total conc, ppm: Gs + Os mixed inoculum, NE = no end point at the concentration tested; for % inhibition: Gs + Os, at the Total conc. As for the experimental part: as §5, §6, §7
A further experiment concerns Aspergillus niger (An). Description: Fungal efficacy testing, modified ASTM 5590 (12-well, dry paint film). Particulars: three weeks; for Total conc, ppm: total biocide in paint taken as minimum inhibitory concentration, 30 C; for % inhibition: at the Total conc. As for the experimental part:
as §1, §2
as §3, with “5%. […]” for “5%.”

What is called % inhibition is the change of the read-out against control, counted positive when it falls. For `CN(C)C(=O)Nc1cccc(C(F)(F)F)c1` [Fluometuron, 1,1-dimethyl-3-(α,α,α-trifluoro-m-tolyl)urea], the “Total conc, ppm” value in [1] was 2500 ppm and 5000 ppm; in experiment [2], 5000 ppm; in experiment [3], 2500 ppm and 5000 ppm; in [4] it was 2500 ppm and 5000 ppm; in experiment [5], 2500 ppm and 5000 ppm; in [6] it was 1250 ppm. Besides, the “Total conc, ppm” value was 1250 ppm in experiment [7]; 312.5 ppm in [8]; 2500 ppm and 5000 ppm in the experiment on Aspergillus niger (An). Also, the “% inhibition” value is reported as 65% in experiment [2], 100% in [6], 100% in experiment [7] and 100% in [8].

As for `CCCCCCCCn1sc(Cl)c(Cl)c1=O` [DCOIT, 4,5-dichloro-2-n-octyl-4-isothiazolin-3-one], the “% inhibition” value was found to be 87.5% in [1]; 32.5% in experiment [2]; 77.5% in experiment [3]; 82.5% in experiment [4]; 67.5% in experiment [5]; 100% in experiment [6]. The figures for the “% inhibition” value (in experiment [7]; in experiment [8]; in the experiment on Aspergillus niger (An)) were 100%, 100% and 75%, respectively. The “Total conc, ppm” value in experiment [1] was found to be 5000 ppm; in experiment [2], 5000 ppm; in [3] it was 2500 ppm; in experiment [4], 2500 ppm; in [5], 5000 ppm; in [6], 575 ppm. The “Total conc, ppm” value in experiment [7] is reported as 575 ppm; in [8], 287.5 ppm; with Aspergillus niger (An), 5000 ppm.

Turning to `Cc1ccc(S(=O)(=O)C(I)I)cc1` [DIMTS, diiodomethyl-p-tolylsulfone], the “% inhibition” value was found to be 77.5% in experiment [1]; 50% in experiment [2]; 77.5% in [3]; 82.5% in experiment [4]; 72.5% in [5]; 100% in [6]. Also, the results for the “% inhibition” value (in [7]; in [8]; in the experiment with Aspergillus niger (An)) were 95%, 100% and 75%, respectively. The “Total conc, ppm” value in experiment [1] came to 2500 ppm; in [2], 750 ppm; in experiment [3] it was 2500 ppm; in experiment [4], 1500 ppm; in [5], 750 ppm; in [6], 1250 ppm. In addition, the figures for the “Total conc, ppm” value (in experiment [7]; in experiment [8]; with Aspergillus niger (An)) were 1875 ppm, 1875 ppm and 750 ppm, respectively.
